Measured values from patent US10351519B2, “Sulfamate derivative compounds, processes for preparing them and their uses” (BIO-PHARM SOLUTIONS CO., LTD., priority 2016, dated 2019).

Legend:
Type in all cases: in vivo
Sprague-Dawley rats = assay: Antiallodynic activity on vincristine-induced pain model; details: intraperitoneally; for ED50: Rattus norvegicus, ip
Protocol: Male, Sprague-Dawley rats (160-180 g, Nara Bio, Korea) were habituated for 1 week before surgery and allowed free access to food and water throughout the experimentation. Room temperature and humidity were maintained at 24±2 and 50±10%, respectively.
The vincristine-induced pain model was established by the procedure of Natsuko et al. (2001) with minor modifications. Vincristine was intravenously infused continuously for 14 days using a mini-osmotic pump as follows: 30 ug/kg vincristine sulfate solution (Hospira, Australia) was diluted with 0.9% saline. The pumps (Alzet Model 2002, USA) were filled with the vincristine solution and primed by incubation at 37 for 4 hours before the infusion. Briefly, animal were put under gaseous anesthesia with isoflurane. A catheter made from PE-60 tube was inserted into an external jugular vein in rat. Sham controls were prepared in the same manner, with the external jugular vein exposed, but with the external jugular vein not cut down. […]
Tactile sensitivity (Mechanical allodynia) was evaluated using von Frey monofilaments before and after treatment, and animals were used withdrawal threshold value was less than 4 g. […] The tactile sensitivity for ipsilateral hind paw was measured using the up-and-down method (Dixon, 1980) with seven von Frey monofilaments (0.4, 1, 2, 4, 6, 8, and 15 g) to 3 trials. […] The 50% paw withdrawal threshold for each paw was calculated using the following formula: [Xth] log=[vFr] log+ky where [vFr] is the force of the last von Frey used, k=0.2249 which is the average interval (in log units) between the von Frey monofilaments, and y is a value that depends upon the pattern of withdrawal responses (Dixon, 1980).
Antiallodynic effect of compound was evaluated at the three dose, intraperitoneally administrated in a volume of 5 ul/g, bw in a vehicle of 30% (v/v) PEG or 20% (v/v) Tween 80. […]
The relative values compared to the sham (% control) were calculated and shown in Table 5, which show an antiallodynic effect of Compound 2&7 on vincristine-induced pain model in rats.

ICR mice [1] = assay: Chemical induced seizure model (BIC); details: for ED50: Mus musculus, ip
Protocol: (§1) Male ICR mice (purchased from Orient Bio Inc. Korea) of body weight 19-26 g were used for these studies. The test materials were administered intraperitoneal route in a volume of 10 ul/g weight. Pharmacological effects of all the test materials were evaluated to compared test groups (n=6) with a control group (n=6). Control group was administrated vehicle, only. The peak time was determined by administration test material's random dose for 0.5-4 hour. The time that the most protect was defined peak time and ED50 was determined by other dose administration at peak time. BIC was dissolved in 0.9% saline and administered subcutaneously (s.c.) at its CD97 (convulsive dose 97%) the dose of BIC that produced clonic seizures in 97% into a loose fold of skin in the midline of the neck in a volume of 10 ul/g body weight. The animals were then transferred to observation cages and observed continuously for 30 min. Clonic seizure was elicited in approximately 95% of control group. Protection was defined as complete absence of a clonic seizure over the 30-min observation period. The time that the most protect was defined peak time and ED50 was determined by other dose administration at peak time. The effective dose of compound necessary to protect against seizures to 50% of controls (i.e. ED50) was determined by log probit analysis using Excel 2007 (Microsoft).

ICR mice [2] = assay: Tail-flick test; details: orally
Protocol: To examine the pain relief effect of the sulfamate compounds, a tail-flick test was conducted, referring to Current Protocols in Neuroscience; Behavioral Neuroscience Unit 8.9.
ICR mice (male, 25-30 g; Orient Bio, Korea) were habituated before test (in test room) for 1 hour. Animals were fasted 2 hr before administration of compounds. Each of the tested compound were orally administered at the 1˜3 dose, 10 ul/g, by bw (n=4-6/group). All compounds were dissolved in a vehicle of 30% (v/v) PEG 400 or 20% (v/v) Tween 80. The control group was treated the vehicle without compounds.
After the administration of compounds, the mice tail were put on a tail-flick analgesia meter. To avoid tissue damage, maximal exposure time to pain stimuli was restricted to 15 seconds. The withdrawal latency was measured to the time to the point when each mouse responded. The relative values compared to the control (% control) were calculated.

ICR mice [3] = assay: Chemical induced seizure model (strychnine); details: intraperitoneal
Protocol: as §1, with “weight 19-27” for “weight 19-26”, “for 0.5, 1, 2” for “for 0.5-4”, “time. Strychnine” for “time. BIC”, “administered intraperitoneally (i.p.)” for “administered subcutaneously (s.c.)”, “of strychnine” for “of BIC”, “97%” for “97% into a loose fold of skin in the midline of the neck”

| Compound | ED50 (Sprague-Dawley rats) | BIC(ip) Peak Time (ICR mice [1]) | ED50 (ICR mice [1]) | tail-flick test Dose (ICR mice [2]) | Vincristine-induced pain model Peak Time (Sprague-Dawley rats) | ED50 (ICR mice [3]; Mus musculus, ip, read-out: Strychnine test ED50) | Strychnine test Peak Time (ICR mice [3]) | tail-flick test Peak Time (ICR mice [2]) | tail-flick test efficacy % (ICR mice [2]; 100 mg/kg) |
| --- | --- | --- | --- | --- | --- | --- | --- | --- | --- |
| C[C@@H](OS(N)(=O)=O)[C@H](O)c1ccccc1Cl [Example 2, (1R, 2R)-1-(2-chlorophenyl)-1-hydroxypropan-2-yl sulfamate] | > 20 mg/kg |  |  |  |  |  |  |  |  |
| C[C@@H](OS(N)(=O)=O)[C@H](O)c1c(Cl)cccc1Cl [Example 8, (1R, 2R)-1-(2,6-dichlorophenyl)-1-hydroxypropan-2-yl sulfamate] |  | 1 h | 73.9 mg/kg | >200 mg/kg |  |  |  |  |  |
| C[C@H](OS(N)(=O)=O)[C@@H](O)c1c(Cl)cccc1Cl [Example 7, (1S, 2S)-1-(2,6-dichlorophenyl)-1-hydroxypropan-2-yl sulfamate] | 10.3 mg/kg | 1 h | 30.8 mg/kg |  | 0.5 h | 75.8 mg/kg | 0.5 h | 1~2 hr | 100 (19.0%) |
